The values below come from PubChem BioAssay (NCI).

Among the test systems are LOX IMVI melanoma; HCT-116 colon; HS 578T breast; NCI-H460 lung; NCI-H23 lung; OVCAR-4 ovarian; OVCAR-8 ovarian; IGROV1 ovarian; SF-539 CNS; RXF 393 renal.
Assay in all cases: NCI-60 cell line screen, 48 h

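Protocol summary: plate cells (96-well), add compound at 5 concentrations, incubate 48 h, interpolate endpoints linearly. Abbreviation: GI50, concentration required for 50% inhibition of growth. TGI is the concentration that stops growth completely.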

As to `COC(=O)CN(CC(=O)NCCCBr)C1CCCCC1N(CC(=O)OC)CC(=O)OC` (stereo not drawn), the TGI with LOX IMVI melanoma, with HCT-116 colon, in the assay on HS 578T breast, with NCI-H460 lung, with NCI-H23 lung and in the assay with OVCAR-4 ovarian was greater than 100 µM each time. The TGI in the assay on OVCAR-8 ovarian, in the assay on IGROV1 ovarian and in the assay with SF-539 CNS was greater than 100 µM each time.
`CC(C)C(Nc1ncnc2nc[nH]c12)C(=O)O` (stereo not drawn): the TGI in the assay with RXF 393 renal, with LOX IMVI melanoma, in the assay on HCT-116 colon, in the assay with HS 578T breast, in the assay with NCI-H460 lung and in the assay on NCI-H23 lung was greater than 100 µM in each case. For the same molecule, the TGI with OVCAR-4 ovarian, in the assay on OVCAR-8 ovarian and in the assay with IGROV1 ovarian was greater than 100 µM in each case.
For `CCC(C)(C)c1cc(O)c(C(C)(C)CC)cc1O`, the GI50 in the assay on RXF 393 renal was 2.69 µM; in the assay with LOX IMVI melanoma, 2.1 µM; in the assay with NCI-H460 lung, 2.25 µM; in the assay with NCI-H23 lung, 3.18 µM; in the assay on OVCAR-4 ovarian, 3.26 µM; in the assay on OVCAR-8 ovarian it was 4.48 µM. Besides, in the assay with SF-539 CNS, the GI50 was 2.7 µM. Also, the TGI amounted to 7.25 µM with RXF 393 renal; 4.62 µM in the assay with LOX IMVI melanoma; 6.53 µM in the assay on NCI-H460 lung; 12.4 µM with NCI-H23 lung; 14.1 µM in the assay with OVCAR-4 ovarian; 23.5 µM with OVCAR-8 ovarian. The molecule also displayed a TGI in the assay with SF-539 CNS of 9.23 µM.
In the case of `COC(C/C(=C/CO[Si](C(C)C)(C(C)C)C(C)C)C(=O)N(C(=O)OC(C)(C)C)c1ccccc1I)OC`, the TGI with LOX IMVI melanoma is 49.8 µM; in the assay on HCT-116 colon, greater than 100 µM; in the assay with HS 578T breast it was greater than 100 µM; with NCI-H460 lung, greater than 100 µM; in the assay on NCI-H23 lung, greater than 100 µM; in the assay on OVCAR-4 ovarian, greater than 100 µM. In addition, the TGI in the assay with OVCAR-8 ovarian is greater than 100 µM; with IGROV1 ovarian, 29.6 µM.
In the case of `Cc1cc2c(c(C(=O)NCC(=O)N[C@@H](C)C(=O)OCc3ccccc3)c1)Oc1c(cc(C)cc1C(=O)NCC(=O)N[C@@H](C)C(=O)OCc1ccccc1)S2`, the TGI was 85.3 µM in the assay with RXF 393 renal; greater than 100 µM in the assay with HCT-116 colon; 80.1 µM in the assay on HS 578T breast; greater than 100 µM in the assay on NCI-H460 lung; greater than 100 µM in the assay on NCI-H23 lung; greater than 100 µM with OVCAR-4 ovarian. Also, the TGI with OVCAR-8 ovarian and in the assay on IGROV1 ovarian was greater than 100 µM in each case.
Regarding `COc1cc(CC(C)=O)cc(OC)c1`, the TGI with HCT-116 colon, in the assay on NCI-H460 lung, in the assay with NCI-H23 lung, with OVCAR-4 ovarian, with OVCAR-8 ovarian and with IGROV1 ovarian was greater than 100 µM each time.
Regarding `CN(c1ccccc1)S(=O)(=O)c1ccc([N+](=O)[O-])cc1`, the TGI in the assay on RXF 393 renal, in the assay with LOX IMVI melanoma, in the assay with HCT-116 colon, with NCI-H460 lung, with NCI-H23 lung and with OVCAR-4 ovarian was greater than 100 µM each time. Moreover, the TGI in the assay on OVCAR-8 ovarian and with SF-539 CNS was greater than 100 µM in each case.
For the molecule `Cc1ccccc1NC(=O)Cc1csc(N/N=C2\NC(=O)/C(=C/c3cccc([N+](=O)[O-])c3)S2)n1`, the TGI was greater than 100 µM with LOX IMVI melanoma; greater than 100 µM with HCT-116 colon; 29 µM in the assay on NCI-H460 lung; 42.7 µM with NCI-H23 lung; 44.2 µM in the assay with OVCAR-4 ovarian; greater than 100 µM in the assay with OVCAR-8 ovarian. The TGI turned out to be 34.3 µM in the assay on IGROV1 ovarian and 33.4 µM in the assay on SF-539 CNS.
On to `Fc1ccc(-c2sc(-c3ccsc3)cc2Cc2ccsc2)cc1`, for which the TGI in the assay with RXF 393 renal, in the assay on LOX IMVI melanoma, with NCI-H23 lung, in the assay with OVCAR-4 ovarian, with OVCAR-8 ovarian and in the assay with IGROV1 ovarian was greater than 10 µM each time.
Take `Cc1ccc(/C=C/C(=O)Oc2ccc(/C=C3\CCC/C(=C\c4ccc(OC(=O)/C=C/c5ccc(C)cc5)cc4)C3=O)cc2)cc1`: the TGI in the assay on LOX IMVI melanoma, in the assay on HCT-116 colon, in the assay with HS 578T breast, in the assay with NCI-H460 lung, with NCI-H23 lung and in the assay with OVCAR-4 ovarian was greater than 100 µM each time. The TGI in the assay with OVCAR-8 ovarian and in the assay on SF-539 CNS was greater than 100 µM throughout.
Regarding `Nn1c(Nc2ccc(S(N)(=O)=O)cc2)nnc(/C=C/c2c(O)ccc3ccccc23)c1=O`, the TGI was 27.1 µM in the assay on LOX IMVI melanoma; 34.1 µM in the assay with HCT-116 colon; greater than 100 µM in the assay on HS 578T breast; 96.2 µM in the assay with NCI-H460 lung; 22.4 µM in the assay on NCI-H23 lung; 47.5 µM in the assay with OVCAR-4 ovarian. The values for the TGI with OVCAR-8 ovarian, in the assay on IGROV1 ovarian and in the assay with SF-539 CNS were 22.6 µM, 0.942 µM and greater than 100 µM, respectively.
Take `COc1ccc2c(c1)Oc1cc(O)ccc1[C@H]2c1ccccc1C(=O)NC(C)c1ccccc1` (stereo partly drawn): the TGI came out at 42 µM in the assay with RXF 393 renal; 31.6 µM in the assay with LOX IMVI melanoma; 26.5 µM in the assay on HCT-116 colon; 26.8 µM with NCI-H460 lung; 32.5 µM in the assay on NCI-H23 lung; 36 µM with OVCAR-8 ovarian. Also, the TGI in the assay on IGROV1 ovarian was 31.5 µM; in the assay with SF-539 CNS, 29.7 µM.
Consider `C/C=C1/CN2CCC34c5ccccc5N(C)C23C2CC1C4(C(=O)OC)C(OC(C)=O)O2` (stereo not drawn), for which the TGI in the assay with LOX IMVI melanoma, in the assay with HCT-116 colon, in the assay with HS 578T breast, in the assay on NCI-H460 lung, in the assay with NCI-H23 lung and in the assay with OVCAR-4 ovarian was greater than 100 µM in each case. In addition, the TGI with OVCAR-8 ovarian, in the assay on IGROV1 ovarian and in the assay on SF-539 CNS was greater than 100 µM throughout.
For the molecule `COC(=O)c1c(O)ccc2c1c1cc3ccccc3cc1n2Cc1cc(OC)cc(OC)c1`, the TGI in the assay on RXF 393 renal was greater than 26.5 µM; with LOX IMVI melanoma, greater than 100 µM; in the assay with HCT-116 colon, greater than 100 µM; with HS 578T breast it was 8.5 µM; in the assay on NCI-H460 lung, greater than 100 µM; with NCI-H23 lung, greater than 100 µM. In addition, the TGI was greater than 66.9 µM in the assay with OVCAR-4 ovarian, greater than 100 µM with OVCAR-8 ovarian and 1.69 µM in the assay with IGROV1 ovarian.
Regarding `O=C1c2ccccc2C(=O)N1n1c(Cc2ccc(Cl)cc2)n[nH]c1=O`, the TGI in the assay with LOX IMVI melanoma, with HCT-116 colon, with HS 578T breast, in the assay on NCI-H460 lung, in the assay with NCI-H23 lung and in the assay with OVCAR-4 ovarian was greater than 100 µM throughout. Besides, the TGI in the assay with OVCAR-8 ovarian, in the assay with IGROV1 ovarian and in the assay on SF-539 CNS was greater than 100 µM in each case.
